Results published in PubChem BioAssay AID493182 (Sanford-Burnham Center for Chemical Genomics, 2011).

biological target: Ubiquitin-conjugating enzyme E2 N (Homo sapiens) (UniProt P61088); assay: concentration-dependent UBC13 chain formation blockade – biochemical, TR-FRET, reconfirmation, dose response (AID 493182); conditions: UBC13 polyubiquitination
Sequence (P61088 whole entry, looked up): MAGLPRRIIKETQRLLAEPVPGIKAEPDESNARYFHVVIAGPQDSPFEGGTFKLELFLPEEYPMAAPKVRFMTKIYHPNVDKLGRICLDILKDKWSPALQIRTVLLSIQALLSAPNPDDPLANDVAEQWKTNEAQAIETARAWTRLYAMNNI

Row | SMILES | IC50 [µM]
1 | N#Cc1ccc(OCC(=O)NNC(=S)NC(=O)C2CC2)cc1 | 6.43
2 | O=C(CSc1nc2ccsc2c(=O)n1Cc1ccc(C(=O)O)cc1)NCC1CCCO1 (configuration not stated) | 17.3
3 | Cc1ccc(N(C(=O)c2snc(C(N)=O)c2N)C(C(=O)NCC2CCCO2)c2c[nH]c3ccccc23)cc1 (configuration not stated) | 12.1
4 | CCCCCCCCCCC[N+](C)(C)CC/C=C1/c2ccccc2Sc2ccc(Cl)cc21 | 4.77

More lines, in order of falling IC50, values ahead:

Row | IC50 [µM] | SMILES
5 | 12.6 | CCC[C@@H](CN1CCC[C@H]1CN1C(N)=NC[C@H]1CC(C)C)N1C[C@@H](Cc2ccccc2)N(CCc2ccc(Cl)c(Cl)c2)C1=N
6 | 4.73 | C#CCOCCOCCOCCNc1nc(N2CCN(C(=O)CCCCCCCCCCNC(=O)[C@H](CCCCN)n3cc(CCO)nn3)CC2)nc(N2CCN(C(=O)CCCCCCCCCCNC(=O)[C@H](CCCCN)n3cc(CCO)nn3)CC2)n1
7 | 3.71 | C#CCOCCOCCOCCNc1nc(N2CCN(C(=O)C([C@@H](C)O)n3cc([C@@H](N)CCCCN)nn3)CC2)nc(N2CCN(C(=O)[C@H](CCCCN)n3cc(CN)nn3)CC2)n1 (some centres not stated)
